Results taken from patent US8282952B2, “Insect attractant” (Activetrad (Proprietary) Limited, priority 2007, dated 2012).

Key:
Female medflies [1] = assay: Delta trap catches in temperature controlled room, released female medflies; conditions: for effect on medfly attraction when added to NATC 1%: Experiment 22
Female medflies [2] = assay: Delta trap catches in orchards, released female medflies; format: in vivo, Ceratitis capitata

Cc1cnc(C)c(C)n1 [2,3,5-Trimethyl pyrazine]
effect on medfly attraction when added to NATC 1% (Female medflies [1]): suppressed medfly attraction

COc1cccc(C(N)=O)c1 [3-Methoxy benzamide]
effect on medfly attraction when added to NATC 1% (Female medflies [1]): suppressed medfly attraction

CC(=O)OCC[N+](C)(C)C.[Cl-] [Acetyl choline chloride]
times more attractive than the tri-ethanolamine mixtures (Female medflies [1]; as amine in the NATC/amine/NH4Ac/Molasses mixture): about 3 times | more medflies attracted than Choline chloride (number) (Female medflies [1]; in vivo): 284.2 | more medflies attracted than Choline chloride (percent) (Female medflies [1]; in vivo): 93%

CC(=O)O.N [Ammonium acetate]
attracting partner for the NATC-0.5%+TEA-0.5% combination compared with Maltol 0.5% (Female medflies [1]; in vivo): stronger attracting partner | increase of trap catches by addition to the NATC-1%+TEA-1% mixture (Female medflies [1]; in vivo): 272.5%

CN(C)Cc1c[nH]c2ccccc12 [Gramine]
effect on medfly attraction when added to NATC 1% (Female medflies [1]): suppressed medfly attraction

CCOC(=O)CC(SP(=S)(OC)OC)C(=O)OCC (centres unmarked) [Malathion]
times more female medflies caught with poison than without it (Female medflies [2]; in vivo): ~1.5 times

C=C(C)[C@H]1Cc2c(ccc3c2O[C@@H]2COc4cc(OC)c(OC)cc4[C@@H]2C3=O)O1 [Rotenone]
effect of the bait poison combined with NATC in YP on female medfly trap catches (Female medflies [2]; Experiment 7, 0.5% poison added to NATC 1% in YP vs NATC 1% in YP alone): small differences

CC(=O)O [acetic acid]
effect of addition on medfly trap catches with TEA (Female medflies [1]; Experiment 14, added to NATC + TEA): seems to decrease
